Test results from the NIST ThermoML archive (doi:10.1016/j.jct.2016.04.014).
± gives the expanded uncertainty stated by the source.

Conditions: Liquid, Vibrating tube method

CCCCCCCC [octane]
mass density [kg/m3]
Conditions | 323.15 K | 328.15 K | 333.15 K | 343.15 K | 353.15 K | 363.15 K | 373.15 K | 393.15 K | 413.15 K
100 kPa | – | 673.8 ± 1.7 | 669.7 ± 1.7 | 661.2 ± 1.7 | 652.6 ± 1.7 | 643.8 ± 1.7 | 634.7 ± 2.7 | 616.3 ± 2.7 | –
1000 kPa | – | 674.7 ± 1.7 | 670.6 ± 1.7 | 662.2 ± 1.7 | 653.7 ± 1.7 | 645 ± 1.7 | 636.3 ± 2.7 | 618.1 ± 2.7 | 599.3 ± 2.7
5000 kPa | – | 678.7 ± 1.7 | 674.8 ± 1.7 | 666.6 ± 1.7 | 658.4 ± 1.7 | 650.1 ± 1.7 | 641.8 ± 2.7 | 624.3 ± 2.7 | 606.6 ± 2.7
10000 kPa | – | 683.5 ± 1.7 | 679.7 ± 1.7 | 671.9 ± 1.7 | 664.1 ± 1.7 | 656.1 ± 1.7 | 648.2 ± 2.7 | 631.8 ± 2.7 | 615.1 ± 2.7
15000 kPa | – | 688.1 ± 1.7 | 684.5 ± 1.7 | 677 ± 1.7 | 669.4 ± 1.8 | 661.9 ± 1.8 | 654.4 ± 2.7 | 638.8 ± 2.7 | 623.1 ± 2.7
20000 kPa | – | 692.5 ± 1.8 | 689 ± 1.8 | 681.8 ± 1.8 | 674.5 ± 1.8 | 667.3 ± 1.8 | 660.1 ± 2.7 | 645.3 ± 2.7 | 630.6 ± 2.7
25000 kPa | – | 696.7 ± 1.8 | 693.2 ± 1.8 | 686.3 ± 1.8 | 679.3 ± 1.8 | 672.4 ± 1.8 | 665.5 ± 2.8 | 651.5 ± 2.8 | 637.4 ± 2.8
30000 kPa | – | 700.7 ± 1.8 | 697.3 ± 1.8 | 690.6 ± 1.8 | 683.9 ± 1.8 | 677.2 ± 1.8 | 670.6 ± 2.8 | 657.1 ± 2.8 | 643.8 ± 2.8
35000 kPa | – | 704.4 ± 1.8 | 701.1 ± 1.8 | 694.6 ± 1.8 | 688.1 ± 1.8 | 681.6 ± 1.8 | 675.3 ± 2.8 | 662.3 ± 2.8 | 649.6 ± 2.8
40000 kPa | – | 707.9 ± 1.8 | 704.7 ± 1.8 | 698.4 ± 1.8 | 692.1 ± 1.8 | 685.8 ± 1.8 | 679.6 ± 2.8 | 667.1 ± 2.8 | 654.8 ± 2.8
45000 kPa | – | 711.3 ± 1.8 | 708.1 ± 1.8 | 701.9 ± 1.8 | 695.7 ± 1.8 | 689.6 ± 1.8 | 683.6 ± 2.8 | 671.4 ± 2.8 | 659.5 ± 2.8
50000 kPa | 717.4 ± 1.8 | 714.4 ± 1.9 | 711.3 ± 1.9 | 705.2 ± 1.9 | 699.1 ± 1.9 | 693.1 ± 1.9 | 687.3 ± 2.8 | 675.3 ± 2.8 | 663.6 ± 2.8
55000 kPa | 720.3 ± 1.9 | 717.3 ± 1.9 | 714.2 ± 1.9 | 708.2 ± 1.9 | 702.3 ± 1.9 | 696.3 ± 1.9 | 690.5 ± 2.8 | 678.8 ± 2.8 | 667.2 ± 2.8
60000 kPa | 722.9 ± 1.9 | 719.9 ± 1.9 | 716.9 ± 1.9 | 711 ± 1.9 | 705.1 ± 1.9 | 699.2 ± 1.9 | 693.5 ± 2.8 | 681.8 ± 2.8 | 670.2 ± 2.9
